Measured values published in patent publication US12466834B2, “Imidazodiazepinediones and methods of use thereof” (GFB (ABC), LLC, priority 2018, dated 2025).

Experiments:
Type in all cases: cell-based
human TRPC5 [1] = target: T1, human TRPC5 (Homo sapiens, UniProt Q9UL62); assay: FLIPR calcium assay, inhibition of riluzole-activated TRPC5 calcium response; details: ICLN-1633 cells; riluzole 30 μM stimulation; Fluo-4 calcium response; read-out: Inhibitor Potency Range (FLIPR)
T1 construct: expressed in transfected cells
T1 sequence (Q9UL62 1-973): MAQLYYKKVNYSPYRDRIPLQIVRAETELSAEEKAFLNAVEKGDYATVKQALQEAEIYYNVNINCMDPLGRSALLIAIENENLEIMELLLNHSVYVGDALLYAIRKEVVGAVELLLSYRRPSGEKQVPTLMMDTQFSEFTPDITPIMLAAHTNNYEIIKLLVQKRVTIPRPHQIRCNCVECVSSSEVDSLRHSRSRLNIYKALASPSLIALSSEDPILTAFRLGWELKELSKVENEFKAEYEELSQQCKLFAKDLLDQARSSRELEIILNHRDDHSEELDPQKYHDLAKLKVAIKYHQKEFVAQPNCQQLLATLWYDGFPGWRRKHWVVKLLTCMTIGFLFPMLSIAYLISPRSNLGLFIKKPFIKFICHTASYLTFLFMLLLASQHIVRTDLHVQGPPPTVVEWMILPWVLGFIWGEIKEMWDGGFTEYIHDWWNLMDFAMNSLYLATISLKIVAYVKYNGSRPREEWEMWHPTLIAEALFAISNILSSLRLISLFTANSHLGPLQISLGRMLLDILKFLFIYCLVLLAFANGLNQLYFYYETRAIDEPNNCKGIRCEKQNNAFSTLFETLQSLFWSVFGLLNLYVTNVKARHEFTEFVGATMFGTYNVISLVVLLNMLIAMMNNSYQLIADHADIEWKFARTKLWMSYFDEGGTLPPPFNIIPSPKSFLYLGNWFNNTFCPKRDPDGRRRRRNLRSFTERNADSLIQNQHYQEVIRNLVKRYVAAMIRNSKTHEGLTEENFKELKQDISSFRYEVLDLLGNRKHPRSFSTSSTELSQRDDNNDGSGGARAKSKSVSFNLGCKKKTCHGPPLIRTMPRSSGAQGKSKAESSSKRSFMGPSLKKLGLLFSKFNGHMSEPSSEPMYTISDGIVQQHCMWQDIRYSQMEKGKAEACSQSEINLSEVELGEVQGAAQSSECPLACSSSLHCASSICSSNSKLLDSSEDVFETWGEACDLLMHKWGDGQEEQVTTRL
Method: (§1) ICLN-1633 cells (HEK-TREx hTRPC5) expressing TRPC5 were generated as follows. Commercially available HekTrex-293 cells were seeded at 0.7×10^6 cells/well in a 1×6-well plate 24 hrs prior to transfection using 2 mL cell growth media containing no antibiotics (1× DMEM/high glucose (Hyclone #SH30022.02); 10% fetal bovine serum (Sigma) 2 mM sodium pyruvate, 10 mM HEPES). The human TRPC5 coding sequence (NM_012471 with a silent T478C mutation) was cloned into pcDNA5/TO (Invitrogen; Cat No. V103320) using hygromycin as the resistance gene and the plasmid (SEQ ID NO:1) propagated using T-Rex-293 cells (Invitrogen; Cat No. R71007) following manufacturer's directions. On day 2, 2 μg of plasmid DNA plus 6 μl of Xtreme-GENE HP reagent in Optimem (200 μl total volume) was prepared and incubated for 15 min at room temperature. This plasmid solution was then gently overlayed dropwise onto each well and the plate was gently swirled to mix complex with the media for approximately 30 seconds. Transfected cells were incubated at 37° C. in a 10% CO2 incubator for 24 hrs. The transfected cells were harvested and transferred into 2×150 mm dishes containing cell growth media with no antibiotics at 37° C.
(§2) Compounds were made up to, or supplied as a 10 mM stock solution generally using DMSO as the vehicle. 10-point dose response curves were generated using the Echo-550 acoustic dispenser. Compound source plates were made by serially diluting compound stocks to create 10 mM, 1 mM, and 0.1 mM solutions in DMSO into Echo certified LDV plates. The Echo then serially spotted 100% DMSO stock solutions into source dose response plates to generate a 4-fold dilution scheme. 100% DMSO was added to the spotted dose response plates to bring the final volume to 5 μl. 300 nl of the dose response stock plate was then spotted into pre-incubation and stimulation assay plates. 50 μl of pre-incubation buffer and 100 μl of stimulation buffer was then added to the plates resulting in a final assay test concentration range of 30 μM to 0.0001 μM with a final DMSO concentration of 0.3%.
(§3) Human ICLN-1633 cells expressing were plated onto 384 well, black poly-D-lysine-coated microplates and maintained in TRPC5 growth media the day prior to use for experiments. TRPC5 expression was induced by the application of 1 μg/mL tetracycline at the time of plating. Media was removed from the plates and 10 μl of 4 μM of Fluo-4 AM (mixed with equal volume of Pluronic F-127) in Earls's Balanced Salt Solution (EBSS) was added to the cells. Cells were incubated at room temperature, protected from light, for 60-90 minutes. After the incubation period, the dye was removed and replaced with 10 μl of EBSS. Cell, pre-incubation and stimulation plates were loaded onto the FLIPR-II and the assay was initiated. The FLIPR measured a 10 second baseline and then added 10 μl of 2× compounds (or controls). Changes in fluorescence were monitored for an additional 5 minutes. After the 5 minute pre-incubation, 20 μl of 2× riluzole (with 1× compound or controls) was added to the cell plate. The final riluzole stimulation concentration in the assay was 30 μM. After the riluzole addition, changes in fluorescence were monitored for an additional 5 minutes. Reduction in the riluzole-activated calcium response relative to control wells was reported as inhibition. A compound-mediated increase in the riluzole response relative to control riluzole response (no test agent present) with no enhancement of calcium entry during preincubation phase was reported as an agonist response.
Compound inhibition of TRPC5 calcium response was determined as follows. After the riluzole addition, fluorescence was monitored for a 5-minute period. For inhibition, the maximum relative fluorescence response (minus the control response of 1 μM of an internal control compound known to maximally block TRPC5 calcium response, the “REF INHIB” in the formula below) was captured and exported from the FLIPR. […]

human TRPC5 [2] = target: T1, human TRPC5; assay: Automated patch clamp assay (QPatch), antagonist mode; details: HEK-TREx hTRPC5 cells; channel activated with Rosiglitazone 30 μM; normalised to ML-204 block; read-out: Qpatch Potency Range
Method: as §1
The next day selection was initiated to generate a stable pool by adding cell growth media containing 150 μg/mL Hygromycin and 5 μg/mL Blasticidin and cells were allowed to grow. Media with the selection agent was changed every 1-2 days as needed to remove dead cells. After 7 days, the hygromycin concentration was reduced to 75 μg/mL and cells growth was allowed to continue.
Single clones were selected as follows. The stable pool was diluted to 10 cells/mL and seeded (100 μl/well) into 24×96 well plates (˜1 cell/well) and allowed to grow for 7 days in cell growth media. Fresh media (100 μl) was added and the cells allowed to grow for another 1-2 weeks and then stored frozen or used immediately.
The automated electrophysiological assay was carried out at room temperature. On the day of the experiment, TRPC5 cells were cultured according to our Standard Operating Procedure. Briefly, cells were harvested using TrypLE™ Express, re-suspended in serum free medium, added to the automated platform and used within 0.5-3 hours. Internal and external physiological solutions were freshly prepared prior to the assay. The external solution contained: 145 mM NaCl, 4 mM KCl, 2 mM CaCl2, 1 mM MgCl2, 10 mM HEPES, 10 mM glucose, pH 7.4 with NaOH and 310 mOsm/L. The internal solution contained 120 mM L-aspartic acid, 120 mM CsOH·H2O, 20 mM CsCl, 2 mM MgCl2, 8.8 mM CaCl2, 10 mM EGTA, 10 mM HEPES and 2 mM Na2ATP; pH 7.2 with CsOH and 330 mOsm/L. The free internal Ca^2+ concentration was buffered to 1 μM, according to the WCabuf software. The automated electrophysiological platform QPatch 16 from Sophion (Denmark) was used to carry out the compounds profiling. The series resistance and quality of seals were continuously monitored during the experiments. Data were analyzed using Sophion QPatch assay software 5.6 (Odense). Data were normalized using the maximum activation obtained during the pre-compound agonist application as the top value (1.0) and maximum inhibition induced by ML-204 as the bottom value (0.0). IC50 values were calculated using a least squares regression algorithm (Hill equation).
To monitor the ion currents, a voltage ramp from −100 mV to +100 mV, over 300 ms, was applied every 10 seconds, from a holding potential of −60 mV. Antagonist-mode: After recording for a minimum of 60 seconds control period, the EC60 concentration of the TRPC5 agonist, Rosiglitazone (30 μM), was applied to activate the channel. After reaching steady-state, co-application of increasing concentrations of test compound were applied followed by two applications of Rosiglitazone EC60 and a saturating concentration of the specific blocker ML-204 (100 μM).

human TRPC5 [3] = target: T1, human TRPC5; assay: FLIPR calcium assay, compound activation (agonism) of TRPC5 calcium response; design: key to Agonist Potency Range (FLIPR): A=0.001-1 μM; B=1-10 μM; C=>1 μM; D=tested with a positive result for agonism, but EC50 not calculated; details: ICLN-1633 cells, Fluo-4 calcium response; for EC50: read-out: Agonist Potency Range (FLIPR)
Method: as §1, §2, §3
Compound activation (agonism) of TRPC5 calcium response was determined as follows. After the initial compound addition, fluorescence was monitored for 5 minutes. The maximum relative fluorescence response (minus the control response of EBSS buffer alone) is captured and exported from the FLIPR. Compound activation is calculated using the following formula: […]

| IC50 (human TRPC5 [1]) [nM] | IC50 (human TRPC5 [2]) [nM] | Agonist Potency Range (FLIPR) (human TRPC5 [3]) | EC50 (human TRPC5 [3]) [nM] | SMILES |
| --- | --- | --- | --- | --- |
| 1 to 1000 | 1 to 1000 | – | – | CCCCn1c(Oc2cccc(F)c2)nc2c1C(=O)N(CCCO)C(=O)[C@@H]1CCCN21 (single isomer, unassigned) [Compound 24] |
| > 10000 | – | D | – | CCCCn1c(Oc2cccc(F)c2)nc2c1C(=O)N(CCCO)C(=O)[C@H]1CCCN21 (single isomer, unassigned) [Compound 25] |
| 1000 to 10000 | 1000 to 30000 | – | – | CN1C(=O)CN(CCCO)C(=O)c2c1nc(Oc1cccc(OC(F)(F)F)c1)n2Cc1ccc(Cl)cc1 [Compound 2, 1-[(4-chlorophenyl)methyl]-7-(3-hydroxypropyl)-4-methyl-2-[3-(trifluoromethoxy)phenoxy]-1H,4H,5H,6H,7H,8H-imidazo[4,5-e][1,4]diazepine-5,8-dione] |
| 1000 to 10000 | > 30000 | – | – | CN1C(=O)CN(CC(F)(F)CO)C(=O)c2c1nc(Oc1cccc(OC(F)(F)F)c1)n2Cc1ccc(Cl)cc1 [Compound 11] |
| > 10000 | – | – | 1 to 1000 | O=C1c2c(nc(Oc3cccc(F)c3)n2Cc2ccc(Cl)cc2)N2CCC[C@@H]2C(=O)N1CCCO [Compound 27] |
| > 10000 | – | – | 1 to 1000 | CC(C)Oc1nc2c(n1Cc1ccc(Cl)cc1)C(=O)N(CCCO)C(=O)[C@@H]1CCCN21 [Compound 28] |
| > 10000 | – | – | 1000 to 10000 | CC(C)Oc1nc2c(n1Cc1ccc(Cl)cc1)C(=O)N(CCCO)C(=O)[C@H]1CCCN21 [Compound 29] |
| > 10000 | – | – | 1000 to 10000 | CCCOc1nc2c(n1Cc1ccc(Cl)cc1)C(=O)N(CCCO)C(=O)[C@H]1CCCN21 [Compound 30] |
| > 10000 | – | – | 1 to 1000 | CCCOc1nc2c(n1Cc1ccc(Cl)cc1)C(=O)N(CCCO)C(=O)[C@@H]1CCCN21 [Compound 31] |
